Structures are written as SMILES.

For one assay, the system named is TRPA1. More on the design: method as in PMID 29054683. The following applies: ≤100μM; cited from earlier work.
In assay [1] the test system is mouse mesenteric arteries. Put plainly: Wire myography, mesenteric artery strips at resting (basal) tone. The following applies: 100μM added at basal tone.
The target of another assay is TRPV1 (Homo sapiens, UniProt Q8NER1). Briefly: TRP channel panel primary screen (FLIPR Calcium 5, stable HEK line). Format: cell-based. The following applies: 0.3-300μM. The method, then:
±PZQ, (R)-PZQ and (S)-PZQ were screened against a panel of 17 human TRP channels (SB Drug Discovery, Glasgow). For all hTRPs, except for TRPM5, individual channel constructs were stably expressed in HEK cell lines. TRMP5 was expressed in a stable CHO cell line. In preparation for the assays, cells were trypsinized, counted and seeded (50,000 cells/well) in black, clear-bottomed 96 well plates and incubated overnight. The following day, cells were loaded with a fluorescent indicator (FLIPR Calcium 5 Assay kit for TRPA1, TRPV1, TRPV2, TRPV3, TRPV4, TRPV5, TRPC1, TRPM2, TRPM3 and TRPM8, or a membrane potential dye (FLIPR Membrane Potential Red Assay Kit for TRPC3, TRPC4, TRPC5, TRPC6, TRPC7, TRPM4 and TRPM5) prepared according to the manufacturer’s instructions in HEPES buffered Hank’s balanced salt solution (HBSS). Dye solution (10μl) was added to appropriate wells and incubated at 37°C for 1 hour. All assays were performed at room temperature. Compounds were tested at 0.3, 1, 3, 10, 30, 100μM and 300μM in triplicate in both agonist and antagonist mode to determine EC50 and IC50 values, which were compared with reference compounds. Compounds were screened at a final DMSO concentration of 0.5%. Plates were screened using a Flexstation (Molecular Devices, FX01138), monitoring fluorescence values every ~1.52 seconds. For ‘agonist mode’ testing, 10μl of the appropriate test compound, or standard agonist, was added after 20 seconds and fluorescence monitored for 2 minutes at λex = 485nm, λem = 525nm for Ca^2+ imaging and λex = 530nm, λem = 565nm for membrane potential measurements. For ‘antagonist mode’ testing, test compounds and standard inhibitors were added to appropriate wells and incubated for 10 minutes at room temperature prior to addition of standard agonist compound.

In a further assay the target is T1, TRPM5 (Homo sapiens, UniProt Q9NZQ8).
T1 sequence (Q9NZQ8 1-1165): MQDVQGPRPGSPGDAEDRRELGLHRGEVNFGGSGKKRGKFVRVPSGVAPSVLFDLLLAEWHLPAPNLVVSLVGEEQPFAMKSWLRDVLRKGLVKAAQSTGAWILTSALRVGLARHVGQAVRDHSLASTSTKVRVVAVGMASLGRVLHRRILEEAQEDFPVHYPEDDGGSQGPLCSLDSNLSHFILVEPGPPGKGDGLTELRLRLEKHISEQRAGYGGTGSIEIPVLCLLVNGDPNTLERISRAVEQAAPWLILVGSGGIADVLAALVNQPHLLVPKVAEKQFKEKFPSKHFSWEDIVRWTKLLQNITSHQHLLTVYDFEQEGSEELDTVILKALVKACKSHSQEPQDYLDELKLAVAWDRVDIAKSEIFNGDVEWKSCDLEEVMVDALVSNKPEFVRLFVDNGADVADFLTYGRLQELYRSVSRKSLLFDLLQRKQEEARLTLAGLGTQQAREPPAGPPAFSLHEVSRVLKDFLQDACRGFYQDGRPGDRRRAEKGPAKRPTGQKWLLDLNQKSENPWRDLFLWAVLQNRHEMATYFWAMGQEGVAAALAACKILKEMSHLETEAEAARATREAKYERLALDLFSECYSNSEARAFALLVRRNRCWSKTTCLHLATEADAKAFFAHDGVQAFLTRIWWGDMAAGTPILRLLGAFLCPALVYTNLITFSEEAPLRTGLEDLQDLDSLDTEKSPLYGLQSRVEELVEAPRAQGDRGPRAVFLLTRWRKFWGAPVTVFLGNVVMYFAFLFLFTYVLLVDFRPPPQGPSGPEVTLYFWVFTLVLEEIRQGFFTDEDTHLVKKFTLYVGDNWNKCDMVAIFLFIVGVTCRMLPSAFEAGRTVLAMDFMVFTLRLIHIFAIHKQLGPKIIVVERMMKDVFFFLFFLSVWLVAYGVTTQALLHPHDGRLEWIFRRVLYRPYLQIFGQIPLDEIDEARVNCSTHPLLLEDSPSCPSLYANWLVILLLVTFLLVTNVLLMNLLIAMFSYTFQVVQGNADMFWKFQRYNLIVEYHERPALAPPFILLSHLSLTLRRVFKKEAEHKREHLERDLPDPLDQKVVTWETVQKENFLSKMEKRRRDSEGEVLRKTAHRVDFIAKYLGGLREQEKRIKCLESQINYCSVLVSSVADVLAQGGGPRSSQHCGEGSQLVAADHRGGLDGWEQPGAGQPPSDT
Put plainly: TRP channel panel primary screen (membrane potential dye, stable CHO line). The following applies: 0.3-300μM. The class given is cell-based. The method, then:
±PZQ, (R)-PZQ and (S)-PZQ were screened against a panel of 17 human TRP channels (SB Drug Discovery, Glasgow). For all hTRPs, except for TRPM5, individual channel constructs were stably expressed in HEK cell lines. TRMP5 was expressed in a stable CHO cell line. In preparation for the assays, cells were trypsinized, counted and seeded (50,000 cells/well) in black, clear-bottomed 96 well plates and incubated overnight. […] Plates were screened using a Flexstation (Molecular Devices, FX01138), monitoring fluorescence values every ~1.52 seconds. For ‘agonist mode’ testing, 10μl of the appropriate test compound, or standard agonist, was added after 20 seconds and fluorescence monitored for 2 minutes at λex = 485nm, λem = 525nm for Ca^2+ imaging and λex = 530nm, λem = 565nm for membrane potential measurements. […]

Sequence of TRPV1 (Q8NER1 whole entry): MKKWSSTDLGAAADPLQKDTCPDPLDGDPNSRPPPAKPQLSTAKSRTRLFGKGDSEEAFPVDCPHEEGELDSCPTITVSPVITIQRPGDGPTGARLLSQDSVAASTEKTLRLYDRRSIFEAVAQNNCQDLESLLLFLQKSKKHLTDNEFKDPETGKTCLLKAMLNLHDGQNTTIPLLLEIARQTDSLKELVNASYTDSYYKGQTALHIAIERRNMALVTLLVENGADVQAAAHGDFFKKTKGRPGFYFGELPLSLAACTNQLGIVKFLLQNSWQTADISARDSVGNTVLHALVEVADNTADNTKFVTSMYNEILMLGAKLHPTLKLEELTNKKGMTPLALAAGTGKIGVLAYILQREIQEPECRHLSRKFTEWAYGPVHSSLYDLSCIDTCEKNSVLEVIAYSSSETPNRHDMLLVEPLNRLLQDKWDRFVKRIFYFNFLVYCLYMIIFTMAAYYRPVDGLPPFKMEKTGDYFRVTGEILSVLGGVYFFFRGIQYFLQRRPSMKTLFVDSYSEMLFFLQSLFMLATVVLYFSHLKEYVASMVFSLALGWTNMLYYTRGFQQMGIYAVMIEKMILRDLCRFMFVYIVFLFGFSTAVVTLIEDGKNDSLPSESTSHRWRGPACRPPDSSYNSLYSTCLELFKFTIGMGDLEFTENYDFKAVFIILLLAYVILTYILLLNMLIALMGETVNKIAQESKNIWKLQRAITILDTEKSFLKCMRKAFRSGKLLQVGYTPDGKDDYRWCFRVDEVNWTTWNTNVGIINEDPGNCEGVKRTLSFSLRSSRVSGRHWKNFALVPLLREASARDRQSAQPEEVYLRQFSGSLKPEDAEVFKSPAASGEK

With `O=C(C1CCCCC1)N1CC(=O)N2CCc3ccccc3C2C1` (racemic) [±PZQ, praziquantel], the “activity against TRPA1” value in the assay with TRPA1 was “lack of activity”. For the same compound, the “change of tension at resting tone” value in assay [1] is “marked contraction”. The “activity against TRPV1 in primary screen” value on TRPV1 is recorded as “no activity”.
As to `O=C(C1CCCCC1)N1CC(=O)N2CCc3ccccc3[C@H]2C1` [(S)-PZQ], at TRPM5, the “activation of TRPM5 in primary screen” value is given as “not activated”.
